Reference: US10512700B2, “Radiohalide-labeled targeted diagnostics and therapeutics” (Memorial Sloan Kettering Cancer Center, priority 2014, dated 2019)
Read-outs that look alike come from different tables or passages of the source. One block for each compound: values may come before it.

How the values were obtained:
[1] = test system: orthotopic U251 MG tumor bearing mice; experiment: Autoradiography using C-2f; assay type: in vivo, mouse
Experimental: One day after PET/CT imaging, the same orthotopic U251 MG tumor bearing mice of Example 4.1.3 were administered with C-2f (80 μCi, 45 mCi/μmol in 300 μL 10% EtOH in 0.9% sterile saline) via tail vein injection. […] The mice were sacrificed after 2 hours and brain and muscle tissues harvested. The collected organs were fixed in Tissue-Tek O.C.T. compound (Sakura Finetek, Torrance, Calif.) and flash-frozen in liquid nitrogen and cut into 20 μm sections using a Vibratome Ultra Pro 5000 Cryostat (Vibratome, St. Louis, Mo.). A storage phosphor autoradiography plate (Fujifilm, BAS-MS2325, Fuji Photo Film, Japan) was exposed to the tissue slices overnight at −20° C. and read the following day (images not shown). Relative count intensity of the sections in each image was quantified using ImageJ 1.47 u processing software (see FIGS. 6A and 6B). Tumor/muscle and brain/muscle ratios were calculated using Prism 6.0c (GraphPad Software, La Jolla, Calif.). The same sections were subsequently subjected to H&E staining (hematoxylin-eosin) for morphological evaluation of tissue pathology and to compare the localization of the radiotracer with the location of tumor tissue (images not shown).

[2] = test system: mice bearing orthotopic U251 MG; experiment: PET/CT imaging using C-2f; assay type: in vivo, mouse
Experimental: Mice bearing orthotopic U251 MG (n=8) were divided in two groups (unblocked and blocked) and administered with C-2f (150 μCi, 45 mCi/μmol in 300 μL 10% EtOH in 0.9% sterile saline) via tail vein injection. […] Approximately 5 min prior to PET acquisition, mice were anesthetized by inhalation of a mixture of isoflurane (Baxter Healthcare, Deerfield, Ill., USA; 2% isoflurane, 2 L/min medical air) and positioned on the scanner bed. Anesthesia was maintained using a 1% isoflurane/O2 mixture. PET data for each mouse was recorded using static scans of 10 minutes and acquired at 30 and 120 minutes post injection. Quantification (see FIG. 8) and % ID/g values were calculated by manually drawing regions of interests in three different frames and determining the average values using ASI Pro VM™ MicroPET Analysis software (Siemens Medical Solutions, Knoxville, Tex.).

Blood half-life = assay type: in vivo, mouse; conditions: athymic nude mice, tail vein injection
Experimental: The blood half-life was determined by measuring the activity in serial blood samplings. […] Measurements in counts per minute were calculated as the mean % ID/g. The blood half-life was calculated using Prism 6.0c (GraphPad Software, La Jolla, Calif.).
The blood half-life was calculated by measuring the activity of blood samples collected at different time points p.i. […] The collected blood was weighed and counted in a WIZARD^2 automatic γ-counter (PerkinElmer, Boston, Mass.). The blood half-life was calculated using Prism 6.0c (GraphPad Software, La Jolla, Calif.) using a two-phase decay least squares fitting method and expressed as % ID/g.

[3] = Stability in whole blood (in vitro); assay type: in vitro ADME; conditions: whole human blood, 37° C., 15 to 240 minutes
Experimental: C-2f was then extracted with 750 μL of MeCN, then centrifuged (5 minutes at 5000 rpm) to pellet blood cells and proteins. The supernatant was collected and prepared for HPLC injection by adding 750 μL mQ H2O and filtering. The blood stability was measured by HPLC analysis (Method A).

[4] = test system: U251 MG tumor bearing mice; experiment: Biodistribution; assay type: in vivo, mouse; conditions: C-2f, i.v., 120 min post injection, unblocked
Experimental: Biodistribution studies were conducted on female nude mice (8-10 weeks old and 20-25 g in weight, n=21) bearing U251 MG subcutaneous xenografts. The radiolabeled preparation (20-30 μCi of compound C-2d (^131I) in 200 μL of a solution 90% PBS 10% PEG300) was administrated via the lateral tail vein. The compound was allowed to circulate for 2 h post injection at which time mice were sacrificed and organs were harvested (n=3). The radioactive content in tissue of interest (blood, tumor, muscle, bone, liver, spleen, kidney, heart, lung, pancreas, brain, skin, small intestine, large intestine, stomach, tail, thyroid and feces) was measured on a Wizard 2470 Automatic Gamma Counter, and the tissue-associated activity was calculated as the mean % ID/g using the following formula: [(activity in the target organ/grams of tissue)/injected dose]×100%.
Biodistribution studies were performed in subcutaneous U251 MG xenograft bearing athymic nude mice (n=12). Mice were divided in two groups (blocked and unblocked) and administered with C-2f (approximately 50 μCi, 45 mCi/μmol in […], 10% EtOH in 0.9% sterile saline) via tail vein injection. […] Mice were sacrificed by CO2 asphyxiation at 120 min post injection and major organs were collected, weighed, and counted in a WIZARD^2 automatic γ-counter (PerkinElmer, Boston, Mass.). The radiopharmaceutical uptake was expressed as a percentage of injected dose per gram (% ID/g) using the following formula: [(activity in the target organ/grams of tissue)/injected dose]×100%.

V79 cells = conditions: DNA-incorporated; cited from earlier work
[5] = Plasma protein binding, Rapid Equilibrium Dialysis; assay type: in vitro ADME, mouse; parameters: fraction unbound at 4 h: dose or concentration left out as unconfirmed; conditions: 4 h at 37° C.; for % plasma free fraction: 10 μM in mouse serum; for Plasma protein binding: 500 μM in mouse serum
Experimental: The plasma protein fraction was determined using the Rapid Equilibrium Dialysis Device System (LifeTechnologies, Grand Island, N.Y.) according to the manufacturer's protocol.
For each of the iodinated compounds, membrane dialysis was performed with 10 μM of the compound in mouse serum (500 μL) on one side of the membrane and PBS (750 μL) on the other side. The system was sealed with parafilm and incubated for 4 h at 37° C. on an orbital shaker set to 250 rpm. Thereafter, 400 μL of solution was taken from both sides, and samples were treated twice with an equal amount of AcN and vortexed to remove protein before HPLC analysis. After injection (100 μL), the compound peaks from each sample were then integrated, and the protein bound fraction was determined as % bound=[1−(Concentration buffer chamber/Concentration plasma chamber)]×100. The data was analyzed using Prism 6.0c (GraphPad Software, La Jolla, Calif.).
The system was sealed with parafilm and incubated for 4 h at 37° C. on an orbital shaker set to 100 rpm. Thereafter, 50 μL of solution was taken from both sides, and samples were treated with 300 μL of precipitation buffer (90/10 acetonitrile/water with 0.1% formic acid) and vortexed to remove protein before HPLC analysis. […] The data was analyzed using Prism 6.0c (GraphPad Software, La Jolla, Calif.).

[6] = Chromatographic Hydrophobicity Index (CHI) and log PCHI determination; assay type: physicochemical; conditions: for chromatographic logP: reverse phase HPLC, read-out: logPCHI
Experimental: Chromatographic Hydrophobicity Index (CHI) was determined according to the procedures reported in K. Valko et al, “Chromatographic Hydrophobicity Index by Fast-Gradient RP-HPLC: A High-Throughput Alternative to log P/log D”, Anal. Chem. 1997, 69:2022-29, incorporated by reference herein in its entirety. Briefly, a series of standards with known CHIs were analyzed with reverse phase HPLC. Retention times of the standards along with their known CHIs were plotted with Prism 6.0c software (GraphPad, La Jolla, Calif.). A line was fit to the data to create a calibration curve, which was then used to calculate the CHI of the test chemical entity based on the HPLC retention time.
The log PCHI value was determined according to K. Valko, 1997.

U251 MG cells = experiment: In vitro blocking study, competitive inhibition of PARP1i-FL uptake; assay type: cell-based, human; conditions: 5 μM (10-fold excess) with PARP1i-FL 500 nM, 30 minutes
Experimental: (§1) U251 MG or U373 MG (1×10^4 cells per well) cells were seeded into 12 wells each on a 96-well plate and cultured for 24 hours. […] Following incubation, cells were washed twice with media and twice with PBS and imaged with a Zeiss LSM 5Live confocal microscope (images not shown). Fluorescence intensity was then quantified from the images using ImageJ 1.47 u processing software (see FIG. 3).

U373 MG cells = experiment: as above; assay type: cell-based, human; conditions: 5 μM (10-fold excess) with PARP1i-FL 500 nM, 30 minutes
Experimental: as §1

PARP1 = biological target: T1, PARP1 (Homo sapiens, UniProt P09874); experiment: IC50 determination, Universal PARP Colorimetric Assay Kit; assay type: biochemical; conditions: Table 2, measured against PARP1
T1 construct: purchased Trevigen
Experimental: Inhibition of PARP1 was measured using the Universal PARP Colorimetric Assay Kit (Trevigen®, Gaithersburg, Md.). IC50 values were calculated using Prism 6.0c software (GraphPad, La Jolla, Calif.).
All experiments were carried out in triplicate.

[7] = reported for olaparib; cited from earlier work

T1 sequence (P09874 whole entry, species assumed): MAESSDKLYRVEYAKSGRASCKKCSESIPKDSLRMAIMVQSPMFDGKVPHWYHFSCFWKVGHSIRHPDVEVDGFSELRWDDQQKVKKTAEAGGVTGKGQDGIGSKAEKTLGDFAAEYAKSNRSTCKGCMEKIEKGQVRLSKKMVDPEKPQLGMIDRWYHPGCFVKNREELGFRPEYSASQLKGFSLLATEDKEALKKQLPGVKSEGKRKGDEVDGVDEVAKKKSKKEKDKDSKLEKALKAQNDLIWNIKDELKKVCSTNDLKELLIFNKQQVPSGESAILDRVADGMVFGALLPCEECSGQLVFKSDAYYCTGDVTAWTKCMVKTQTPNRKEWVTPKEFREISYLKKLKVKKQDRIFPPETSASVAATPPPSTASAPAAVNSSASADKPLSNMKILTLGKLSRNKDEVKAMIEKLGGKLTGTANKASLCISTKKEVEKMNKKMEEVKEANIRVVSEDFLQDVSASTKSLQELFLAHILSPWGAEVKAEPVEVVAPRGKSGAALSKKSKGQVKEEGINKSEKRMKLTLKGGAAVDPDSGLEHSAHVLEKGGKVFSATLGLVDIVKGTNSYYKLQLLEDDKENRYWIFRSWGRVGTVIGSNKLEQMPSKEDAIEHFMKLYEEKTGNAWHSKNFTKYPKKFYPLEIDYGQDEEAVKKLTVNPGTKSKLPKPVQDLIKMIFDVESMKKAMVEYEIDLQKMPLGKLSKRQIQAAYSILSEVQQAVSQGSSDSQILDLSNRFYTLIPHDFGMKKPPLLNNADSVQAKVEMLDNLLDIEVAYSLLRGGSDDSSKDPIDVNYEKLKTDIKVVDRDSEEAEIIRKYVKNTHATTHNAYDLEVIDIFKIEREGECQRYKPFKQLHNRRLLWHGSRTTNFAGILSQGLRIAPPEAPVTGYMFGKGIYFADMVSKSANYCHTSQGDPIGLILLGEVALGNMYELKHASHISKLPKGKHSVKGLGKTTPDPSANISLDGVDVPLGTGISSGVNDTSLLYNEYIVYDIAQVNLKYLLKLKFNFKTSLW

Compound: O=C(c1ccc([18F])cc1)N1CCN(C(=O)c2cc(Cc3n[nH]c(=O)c4ccccc34)ccc2F)CC1 [C-2f (^18F)]
autoradiography, retention in orthotopic tumor ([1]; C-2f only, 2 hours): 46.66±14.94 AU
autoradiography, retention in surrounding brain ([1]; C-2f only, 2 hours): 0.06±0.02 AU
autoradiography, muscle tissue ([1]; healthy mice): 1.50±0.31 AU
reduction of C-2f by preinjection of olaparib ([1]; orthotopic tumor): 99%
autoradiography, retention in orthotopic tumor ([1]; preinjection of olaparib): 0.44±0.41 AU
autoradiography, retention in surrounding brain ([1]; preinjection of olaparib): 0.03±0.01 AU
autoradiography, muscle tissue ([1]; tumor-bearing mice): 1.36±0.21 AU
PET retained activity in tumor ([2]; animals receiving only C-2f): 2.15±0.79 % ID/g
PET retained activity in tumor ([2]; animals that received both olaparib and C-2f): 0.28±0.01 % ID/g
PET retained activity, C-2f only vs olaparib and C-2f ([2]; mouse, in vivo): eight-fold higher
alpha blood half-life (Blood half-life): 1.27 min
beta blood half-life (Blood half-life): 31.14 min
beta blood half-life, share of phase (Blood half-life): 14.49%
weighted blood half-life (Blood half-life; 50 μCi): 5.6 min
in vitro blood stability [3]: excellent stability
in vitro blood stability ([3]; listed as C-2f): no radioactive metabolites were observed
% ID/g, Brain [4]: 0.04±0.01 % ID/g
% ID/g, Muscle [4]: 0.37±0.09 % ID/g
% ID/g, Tumor [4]: 1.82±0.21 % ID/g

Compound: O=c1[nH]c(=O)n([C@H]2C[C@H](O)[C@@H](CO)O2)cc1I [^123I-IdUrd, 5-iodo-2′-deoxy uridine]
RBE (V79 cells): ~7

Compound: O=C(c1cccc(I)c1)N1CCN(C(=O)c2cc(Cc3n[nH]c(=O)c4ccccc34)ccc2F)CC1 [c-1 (^127I), 4-(4-fluoro-3-(4-(3-iodobenzoyl)piperazine-1-carbonyl)benzyl)-phthalazin-1(2H)-one]
% plasma free fraction [5]: 9.6 ± 1.5%

Compound: O=C(c1ccc(I)cc1)N1CCN(C(=O)c2cc(Cc3n[nH]c(=O)c4ccccc34)ccc2F)CC1 [c-2 (^127I), 4-(4-fluoro-3-(4-(4-iodobenzoyl)piperazine-1-carbonyl)benzyl)-phthalazin-1(2H)-one]
% plasma free fraction [5]: 11.5 ± 0.1%

Compound: O=C(c1cc(Cc2n[nH]c(=O)c3ccccc23)ccc1F)N1CCN(C(=O)C2CC2)CC1 [olaparib, 4-[3-(4-cyclopropanecarbonylpiperazine-1-carbonyl)-4-fluorobenzyl]-2H-phthalazin-1-one, reference compound]
CHI [7]: 34.1
logPCHI [7]: 0.8
reduction of fluorescence intensity in the nucleus (U251 MG cells): 69.6%±22.3%
reduction of fluorescence intensity in the nucleus (U373 MG cells): 71.2%±20.0%
Plasma protein binding [5]: 65%

Now from value to compound, other results behind:

CHI ([6]; Table 3): 57.5
logPCHI ([6]; Table 3): 2.15±0.41
chromatographic logP ([6]; Table 3): 2.15 ± 0.41
Plasma protein binding [5]: 63.9 ± 12.6%
fraction unbound at 4 h ([5]; mouse, mouse serum): 0.36
Compound: O=C(c1ccc(F)cc1)N1CCN(C(=O)c2cc(Cc3n[nH]c(=O)c4ccccc34)ccc2F)CC1 [c-2 (^19F)]
reduction of fluorescence intensity in the nucleus (U251 MG cells): 80.0%±10.8%
reduction of fluorescence intensity in the nucleus (U373 MG cells): 78.8%±10.4%

CHI ([6]; Table 2): 66.7
chromatographic logP ([6]; Table 2): 2.7
IC50 (PARP1): 34 ± 3 nM
% plasma free fraction [5]: 7.0 ± 0.1%
Compound: O=C(Cc1cccc(I)c1)N1CCN(C(=O)c2cc(Cc3n[nH]c(=O)c4ccccc34)ccc2F)CC1 [c-3 (^127I), 4-(4-fluoro-3-(4-(2-(3-iodophenyl)acetyl)piperazine-1-carbonyl)-benzyl)phthalazin-1(2H)-one]

CHI ([6]; Table 2): 66.7
chromatographic logP ([6]; Table 2): 2.7
IC50 (PARP1): 74 ± 5 nM
% plasma free fraction [5]: 5.0 ± 0.3%
Compound: O=C(Cc1ccc(I)cc1)N1CCN(C(=O)c2cc(Cc3n[nH]c(=O)c4ccccc34)ccc2F)CC1 [c-4 (^127I), 4-(4-fluoro-3-(4-(2-(4-iodophenyl)acetyl)piperazine-1-carbonyl)-benzyl)phthalazin-1(2H)-one]

CHI ([6]; Table 2): 71.6
chromatographic logP ([6]; Table 2): 3
IC50 (PARP1): 107 ± 4 nM
% plasma free fraction [5]: 7.8 ± 1.4%
Compound: O=C(CCc1cccc(I)c1)N1CCN(C(=O)c2cc(Cc3n[nH]c(=O)c4ccccc34)ccc2F)CC1 [c-5 (^127I), 4-(4-fluoro-3-(4-(3-(3-iodophenyl)propanoyl)piperazine-1-carbonyl)benzyl)phthalazin-1(2H)-one]

CHI ([6]; Table 2): 71.6
chromatographic logP ([6]; Table 2): 3
IC50 (PARP1): 47 ± 5 nM
% plasma free fraction [5]: 4.7 ± 0.5%
Compound: O=C(CCc1ccc(I)cc1)N1CCN(C(=O)c2cc(Cc3n[nH]c(=O)c4ccccc34)ccc2F)CC1 [c-6 (^127I), 4-(4-fluoro-3-(4-(3-(4-iodophenyl)propanoyl)piperazine-1-carbonyl)benzyl) phthalazin-1(2H)-one]
